Source: PubChem BioAssay (NCI)
Values joined by “and” are separate entries in the source; they are usually repeats but may differ in a detail not shown here. Equal entries are not always repeated.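 Five compound concentrations were applied to cells in 96-well plates for 48 hours; endpoints were derived by simple linear interpolation of the resulting dose-response curve. GI50 is the concentration that inhibits growth by half. TGI: concentration producing complete growth inhibition.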

Key:
Test in all cases: NCI-60 cell line screen, 48 h
NCI/ADR-RES ovarian = tested on: NCI/ADR-RES ovarian
HOP-62 NSCLC = tested on: HOP-62 NSCLC
T-47D breast = tested on: T-47D breast
HCC-2998 colon = tested on: HCC-2998 colon
SF-295 CNS = tested on: SF-295 CNS
CAKI-1 renal = tested on: CAKI-1 renal
CCRF-CEM leukemia = tested on: CCRF-CEM leukemia
NCI-H522 lung = tested on: NCI-H522 lung
A549 NSCLC = tested on: A549 NSCLC
U251 CNS = tested on: U251 CNS

SMILES | GI50 (NCI/ADR-RES ovarian) [µM] | TGI (NCI/ADR-RES ovarian) [µM] | GI50 (HOP-62 NSCLC) [µM] | TGI (HOP-62 NSCLC) [µM] | GI50 (T-47D breast) [µM] | TGI (T-47D breast) [µM] | GI50 (HCC-2998 colon) [µM] | TGI (HCC-2998 colon) | GI50 (SF-295 CNS) [µM] | TGI (SF-295 CNS) [µM] | GI50 (CAKI-1 renal) [µM] | TGI (CAKI-1 renal) [µM] | GI50 (CCRF-CEM leukemia) [µM] | TGI (CCRF-CEM leukemia) | GI50 (NCI-H522 lung) | TGI (NCI-H522 lung) | GI50 (A549 NSCLC) [µM] | TGI (A549 NSCLC) [µM] | GI50 (U251 CNS) [µM] | TGI (U251 CNS)
CCCCCCCCCCC[C@@H](C[C@H]1OC(=O)[C@H]1CCCCCC)OC(=O)[C@@H](CC(C)C)NC=O | 2.86 | 15.2 | 4.14 | 29.5 | 13.3 | > 100 | 5.31 | 27.3 µM | 2.08 | 10.6 | 5.5 | > 100 | 1.31 | 76.4 µM | 5.56 µM | 26.4 µM | 13.1 | > 100 | 2.83 | 17.2 µM
CN1CCN(c2ccc3nc(-c4[nH]ncc4Nc4ncnc5c4OCCCN5)[nH]c3c2)CC1 | 0.28 | 2.89 | 0.0101 | 0.062 | 0.0129 | 0.155 | 0.0159 | 0.0762 µM | 0.0162 | 0.0769 | < 0.01 | 0.0805 | < 0.01 | 1.36 µM | < 0.0117 µM | 0.0488 µM | < 0.01 | 0.116 | < 0.01 | 0.123 µM
CC#CC#C/C=C1\C=CC2(OC=CC2OC(C)=O)O1 (stereo unspecified) | – | > 100 | – | > 100 | – | 73.9 | – | 69.9 µM and 45.9 µM | – | > 100 | – | 31.2 | – | 40.3 µM and 72.9 µM | 14.7 µM and 5.72 µM | 39.2 µM and 11.1 µM | – | > 100 | – | 43.1 µM and 33.2 µM
CCOC(=O)Cn1c(-c2nonc2NC(=O)c2ccccc2F)nc2ccccc21 | 4.74 | > 100 | 10.8 | 47.7 | 44.1 | > 100 | 31.7 | > 100 µM | 2.77 | > 55.2 | 2.33 | > 100 | > 100 | > 100 µM | 12.7 µM | > 78.9 µM | 0.768 | > 56.7 | 0.41 | 25.8 µM
O=C1NC(=O)[C@@H](c2c[nH]c3ccccc23)[C@@H]1c1c[nH]c2ccccc12 | > 25 | > 25 | > 25 | > 25 | > 25 | > 25 | > 25 | > 25 µM | > 25 | > 25 | > 25 | > 25 | > 25 | > 25 µM | > 25 µM | > 25 µM | > 25 | > 25 | > 25 | > 25 µM
COc1cc(-c2nc(-c3ccc(-c4nc5ccc(F)cc5[nH]4)cc3)no2)cc(OC)c1OC | 2.49 | 8.26 | 3.21 | 9.15 | 2.72 | 7.46 | 6.13 | 40.4 µM | 2.31 | 7.02 | 2.76 | 9.13 | 2.97 | 22.3 µM | 3.04 µM | 8.98 µM | 3.42 | 14.6 | 3.03 | 28.8 µM
CCOC(=O)c1ccc(N(C=O)CCC(=O)CCl)cc1 | 0.393 | 19.4 | 0.485 | 13.4 | 1.16 | 3.45 | 0.372 | 1.54 µM | 1.2 | 13 | 0.528 | 2.05 | 0.037 | 1.6 µM | 0.138 µM | 0.617 µM | 1.37 | 12.7 | 0.342 | 10.8 µM
COc1cc(OC)c(F)c(COc2cnc(Nc3cnn(CCO)c3)nc2)c1F | 0.726 | > 100 | 0.423 | 4.58 | 1.68 | > 100 | 2.51 | > 100 µM | 0.649 | > 29.8 | 0.394 | 2.87 | 0.669 | > 100 µM | 0.341 µM | 1.65 µM | 1.37 | > 100 | 0.528 | > 30.8 µM
CCCCCCCCCCCC1=NC(C)(C)CN1CC(C)O (stereo unspecified) | 11.8 | 24.1 | 4.75 | 17.4 | 3.27 | 11.2 | 1.69 | 3.07 µM | 4.36 | 17.8 | 2.97 | 12.2 | 2.85 | 11.9 µM | 3.42 µM | 15.9 µM | 6.83 | 22.6 | 3.3 | 12 µM
C[C@@H](Oc1cc(-n2cnc3ccc(OCC4CCN(C)CC4)cc32)sc1C(N)=O)c1ccccc1Cl | 0.258 | 2.4 | 0.0977 | 3.55 | 2.86 | 6.3 | 0.0815 | 3.27 µM | 0.0853 | 3.31 | 0.774 | 4.81 | 0.00965 | 0.856 µM | 0.0382 µM | 0.147 µM | 0.0919 | 2.93 | 0.106 | 3.86 µM
NC(=O)c1sc(-n2cnc3ccc(C(F)(F)F)cc32)cc1OCc1ccccc1Br | 0.764 | > 25 | 0.916 | > 10.5 | 2.59 | > 20.3 | 2.4 | > 23.1 µM | 1.72 | > 23.4 | 15.3 | > 25 | 0.685 | > 25 µM | 0.793 µM | 5.71 µM | 1.57 | > 25 | 1.61 | > 25 µM
Nc1nccc2c1ccn2-c1cccc(NC(=O)c2ccc(N3CCOCC3)c(C(F)(F)F)c2)c1 | 0.361 | > 10.2 | 1.27 | > 25.8 | 1.98 | 29.9 | 1.63 | > 44.5 µM | 0.371 | 1.85 | 0.531 | > 19 | 1.01 | > 50 µM | 0.288 µM | 2.45 µM | 0.922 | > 50 | 0.664 | 9.35 µM
